Laboratory results as given in patent publication US20090004287A1, “Disinfectant formulations containing quaternary ammonium compounds and hydrogen peroxide” (priority 2007, published 2009).

Columns and labels:
[1] = Hydrogen peroxide stability in the presence of didecyldimethylammonium bicarbonate/carbonate; assay type: physicochemical
Description: Hydrogen Peroxide Stability in the Presence of Didecyldimethylammonium Bicarbonate/-Carbonate

P. aeruginosa = experiment: Efficacy against P. aeruginosa dried on microplate wells (growth/no growth, 4 replicates); assay type: cell-based; conditions: 5% fetal bovine serum; for Positive cells out of a total of 4 after 5 min: contact time 5 min, diluted in water of 400 ppm hardness, positive = ineffective disinfection; for Positive cells out of a total of 4 after 10 min: contact time 10 min; for Positive cells out of a total of 4 after 10 min / Positive cells out of a total of 4 after 11 min / Positive cells out of a total of 4 after 13 min / Positive cells out of a total of 4 after 16 min / Positive cells out of a total of 4 after 20 min / Positive cells out of a total of 4 after 21 min / Positive cells out of a total of 4 after 25 min: water of 400 ppm hardness; for Positive cells out of a total of 4 after 11 min: contact time 11 min; for Positive cells out of a total of 4 after 13 min: contact time 13 min; for Positive cells out of a total of 4 after 16 min: contact time 16 min; for Positive cells out of a total of 4 after 20 min: contact time 20 min; for Positive cells out of a total of 4 after 21 min: contact time 21 min; for Positive cells out of a total of 4 after 25 min: contact time 25 min
Experimental: All solutions were diluted in water of 400 ppm hardness and all concentrations were expressed in ppm. Each of the solutions was tested in 4 replicates as described below. The numbers in Table 2 below indicate the number of “positive” cells or ineffective disinfection of 4 replicates. Various contact times noted on the tables were evaluated.
Flat bottom microplate wells were inoculated with 15 μL each of a suspension of 10% P. aeruginosa+5% fetal bovine serum in a saline solution, 4.5×10^7 cfu/mL using a Quadra Tower 400 Series High Throughput apparatus (Tomtec Inc., Hamden, Conn.). The plates were dried with cover open for 40 minutes at 36° C. Then, 120 μL of each test substance was transferred from the deep-well block to the test wells. The test organisms were exposed to the test substance for different contact times, after which the substances were removed with the Quadra and 150 μL of modified AOAC Letheen neutralizer+0.5% Na thiosulfate/growth broth was added to each well. The microplates were incubated at 36° C. for 24 hours and scored for growth/no growth.

Compound | % Hydrogen Peroxide Concentration at Time/Temperature: 1 Month/40° C. ([1]; 1 month, 40° C.) [%] | % Hydrogen Peroxide Concentration at Time/Temperature: 1 Month/RT ([1]; 1 month, room temperature) [%] | % Hydrogen Peroxide Concentration at Time/Temperature: 1 Week/40° C. ([1]; 1 week, 40° C.) [%] | % Hydrogen Peroxide Concentration at Time/Temperature: 1 Week/RT ([1]; 1 week, room temperature) [%] | % Hydrogen Peroxide Concentration at Time/Temperature: Initial ([1]; Initial, by weight, analytical accuracy ±3% relative) [%] | Positive cells out of a total of 4 after 5 min (P. aeruginosa) | Positive cells out of a total of 4 after 10 min (P. aeruginosa) | Positive cells out of a total of 4 after 11 min (P. aeruginosa) | Positive cells out of a total of 4 after 13 min (P. aeruginosa) | Positive cells out of a total of 4 after 16 min (P. aeruginosa) | Positive cells out of a total of 4 after 20 min (P. aeruginosa) | Positive cells out of a total of 4 after 21 min (P. aeruginosa) | Positive cells out of a total of 4 after 25 min (P. aeruginosa)
OO [3.0% H2O2, hydrogen peroxide] | 1.82 | 2.85 | 2.74 | 2.99 | 3.11 | – | – | – | – | – | – | – | –
OO [H2O2 2,000 ppm, hydrogen peroxide] | – | – | – | – | – | 0 | 0 | 0 | 0 | 0 | 0 | 0 | 0
OO [H2O2 600 ppm, hydrogen peroxide] | – | – | – | – | – | 4 | 4 | 2 | 0 | 0 | 0 | 0 | 0
didecyldimethylammonium carbonate/bicarbonate [Quat 500 ppm] | – | – | – | – | – | 4 | 4 | 4 | 4 | 1 | 0 | 1 | 0
